Reference: ChEMBL document CHEMBL1201862, “PubChem BioAssay data set” (2004)
The source made the active and inactive calls.

Molecular target: T1, Protein RecA (Mycobacterium tuberculosis, UniProt P9WHJ3)
T1 sequence (P9WHJ3 whole entry): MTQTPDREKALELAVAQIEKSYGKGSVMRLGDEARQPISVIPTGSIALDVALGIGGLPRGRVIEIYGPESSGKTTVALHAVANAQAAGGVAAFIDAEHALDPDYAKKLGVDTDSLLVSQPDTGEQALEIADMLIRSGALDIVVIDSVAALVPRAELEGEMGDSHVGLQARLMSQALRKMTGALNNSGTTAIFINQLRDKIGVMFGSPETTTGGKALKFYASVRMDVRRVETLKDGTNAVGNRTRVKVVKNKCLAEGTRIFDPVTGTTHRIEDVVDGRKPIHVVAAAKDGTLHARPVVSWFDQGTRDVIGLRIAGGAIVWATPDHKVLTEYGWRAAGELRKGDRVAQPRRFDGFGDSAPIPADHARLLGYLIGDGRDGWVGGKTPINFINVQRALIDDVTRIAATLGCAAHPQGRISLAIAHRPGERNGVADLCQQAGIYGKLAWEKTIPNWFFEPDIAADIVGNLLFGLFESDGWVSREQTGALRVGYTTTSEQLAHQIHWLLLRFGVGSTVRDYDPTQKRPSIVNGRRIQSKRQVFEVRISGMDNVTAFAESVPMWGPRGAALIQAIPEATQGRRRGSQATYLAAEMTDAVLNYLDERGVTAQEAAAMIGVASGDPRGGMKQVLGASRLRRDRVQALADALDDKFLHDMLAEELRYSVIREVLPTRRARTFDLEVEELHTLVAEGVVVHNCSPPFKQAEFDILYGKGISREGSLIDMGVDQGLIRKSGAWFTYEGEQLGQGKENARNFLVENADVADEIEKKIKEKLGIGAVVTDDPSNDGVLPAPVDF
Assay: Fluorescence Cell-Free Homogeneous Dose Retest to Identify Inhibitors of RecA-Intein Splicing Activity. [Related pubchem assays (depositor defined):AID2097, AID2223, AID489010, AID492950]
Type: functional

Structure (SMILES)	EC50
Cc1cc(C)c(S(=O)(=O)/N=C2\C=C(Nc3ccc(C(=O)O)cc3)C(=O)c3ccccc32)c(C)c1	0.0696 µM (active)
O=C(Cc1ccccc1)NC1(O)C(=O)c2ccccc2C1=O	8.67 µM (active)
COC(=O)c1nc(-c2ccc3c(n2)C(=O)C(=N)C(OC)=C3O)c(N)c(-c2ccc(OC)c(OC)c2O)c1C	0.342 µM (active)

Molecular target: Dual specificity mitogen-activated protein kinase kinase 1 (Homo sapiens, UniProt Q02750)
Assay: Navigating the Kinome. Panel member name: MAP2K1
Type: functional

Sequence of Dual specificity mitogen-activated protein kinase kinase 1 (Q02750 whole entry): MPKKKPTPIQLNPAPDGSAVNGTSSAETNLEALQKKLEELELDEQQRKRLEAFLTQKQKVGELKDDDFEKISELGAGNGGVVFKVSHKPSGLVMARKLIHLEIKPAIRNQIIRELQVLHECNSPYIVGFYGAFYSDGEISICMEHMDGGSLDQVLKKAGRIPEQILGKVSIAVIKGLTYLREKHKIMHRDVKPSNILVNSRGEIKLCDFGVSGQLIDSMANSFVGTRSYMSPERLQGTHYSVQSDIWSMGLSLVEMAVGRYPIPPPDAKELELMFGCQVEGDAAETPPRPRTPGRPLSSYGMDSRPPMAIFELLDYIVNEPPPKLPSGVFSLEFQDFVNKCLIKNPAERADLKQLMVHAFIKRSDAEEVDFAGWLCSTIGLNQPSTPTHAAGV

Structure (SMILES)	Ki
CCC1CC(NS(=O)(=O)C2CC2)CC1c1ncc2cnc3[nH]ccc3n12 (stereo unspecified)	> 3.16 µM (inactive)
O=C(Nc1cccc(C(F)(F)F)n1)Nc1ccnc2cc(OC(F)F)ccc12	> 3.16 µM (inactive)
O=c1[nH]c2cc(Br)cnc2[nH]1	50.1 µM (active)
O=C(Nc1cccc(C(F)(F)F)n1)Nc1ccnc2cc(Cl)ccc12	3.16 µM (active)

Molecular target: T2, Serine/threonine-protein kinase TBK1 (Homo sapiens, UniProt Q9UHD2)
T2 sequence (Q9UHD2 whole entry): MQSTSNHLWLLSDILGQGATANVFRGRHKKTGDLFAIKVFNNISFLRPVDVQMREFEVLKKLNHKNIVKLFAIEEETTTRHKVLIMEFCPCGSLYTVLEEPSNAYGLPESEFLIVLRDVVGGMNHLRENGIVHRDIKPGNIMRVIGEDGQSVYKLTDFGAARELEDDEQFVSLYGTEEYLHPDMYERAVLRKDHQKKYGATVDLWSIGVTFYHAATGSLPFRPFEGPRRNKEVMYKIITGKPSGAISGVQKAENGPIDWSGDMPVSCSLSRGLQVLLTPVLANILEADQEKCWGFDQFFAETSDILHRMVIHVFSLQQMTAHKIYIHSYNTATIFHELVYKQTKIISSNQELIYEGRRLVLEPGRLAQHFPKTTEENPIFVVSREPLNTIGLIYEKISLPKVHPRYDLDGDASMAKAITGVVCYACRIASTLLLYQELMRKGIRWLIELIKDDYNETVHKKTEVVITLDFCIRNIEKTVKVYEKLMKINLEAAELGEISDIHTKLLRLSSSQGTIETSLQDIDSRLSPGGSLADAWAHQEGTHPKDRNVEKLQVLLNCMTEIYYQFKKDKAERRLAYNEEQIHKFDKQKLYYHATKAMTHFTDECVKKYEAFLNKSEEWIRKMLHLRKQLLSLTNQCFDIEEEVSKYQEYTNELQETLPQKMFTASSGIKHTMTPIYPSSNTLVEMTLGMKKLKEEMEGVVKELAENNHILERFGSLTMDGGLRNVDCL
Assay: Navigating the Kinome. Panel member name: TBK1
Type: functional

Structure (SMILES)	Ki
CCC1CC(NS(=O)(=O)C2CC2)CC1c1ncc2cnc3[nH]ccc3n12 (stereo unspecified)	> 3.16 µM (inactive)
O=C(Nc1cccc(C(F)(F)F)n1)Nc1ccnc2cc(OC(F)F)ccc12	> 3.16 µM (inactive)
O=c1[nH]c2cc(Br)cnc2[nH]1	79.4 µM (active)
O=C(Nc1cccc(C(F)(F)F)n1)Nc1ccnc2cc(Cl)ccc12	> 3.16 µM (inactive)

Molecular target: T3, Receptor-type tyrosine-protein kinase FLT3 (Homo sapiens, UniProt P36888);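 note: FLT3 was tested as one member of a kinome-wide kinase panel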
T3 sequence (P36888 whole entry): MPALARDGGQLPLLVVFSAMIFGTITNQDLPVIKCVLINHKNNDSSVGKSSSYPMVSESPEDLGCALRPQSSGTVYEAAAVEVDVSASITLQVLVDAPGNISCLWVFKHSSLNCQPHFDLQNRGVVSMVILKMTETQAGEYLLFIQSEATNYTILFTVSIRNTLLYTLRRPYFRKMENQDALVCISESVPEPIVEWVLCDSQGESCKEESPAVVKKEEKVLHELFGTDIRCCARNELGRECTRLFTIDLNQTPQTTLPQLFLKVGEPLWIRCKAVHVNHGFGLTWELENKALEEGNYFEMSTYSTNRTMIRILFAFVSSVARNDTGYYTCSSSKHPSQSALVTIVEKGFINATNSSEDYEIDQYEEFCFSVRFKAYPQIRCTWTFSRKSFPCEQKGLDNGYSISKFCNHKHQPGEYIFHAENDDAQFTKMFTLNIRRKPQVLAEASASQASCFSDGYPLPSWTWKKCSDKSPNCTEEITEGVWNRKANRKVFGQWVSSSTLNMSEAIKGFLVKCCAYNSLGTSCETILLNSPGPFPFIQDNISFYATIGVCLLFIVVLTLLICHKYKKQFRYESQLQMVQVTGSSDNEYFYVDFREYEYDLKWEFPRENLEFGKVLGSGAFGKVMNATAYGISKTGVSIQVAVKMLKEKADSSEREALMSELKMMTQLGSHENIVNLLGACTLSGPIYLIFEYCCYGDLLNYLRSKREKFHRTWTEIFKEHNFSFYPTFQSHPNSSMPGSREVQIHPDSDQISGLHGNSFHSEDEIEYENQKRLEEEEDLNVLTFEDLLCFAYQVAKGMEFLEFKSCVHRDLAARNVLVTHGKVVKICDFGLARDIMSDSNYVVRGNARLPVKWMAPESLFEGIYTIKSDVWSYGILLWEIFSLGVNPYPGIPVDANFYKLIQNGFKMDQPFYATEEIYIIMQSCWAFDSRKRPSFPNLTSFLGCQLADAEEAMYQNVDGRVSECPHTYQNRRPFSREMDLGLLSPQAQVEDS
Type: functional

Structure (SMILES)	Ki
CCC1CC(NS(=O)(=O)C2CC2)CC1c1ncc2cnc3[nH]ccc3n12 (stereo unspecified)	> 3.16 µM (inactive)
O=C(Nc1cccc(C(F)(F)F)n1)Nc1ccnc2cc(OC(F)F)ccc12	> 3.16 µM (inactive)
O=C(Nc1cccc(C(F)(F)F)n1)Nc1ccnc2cc(Cl)ccc12	> 3.16 µM (inactive)

Molecular target: Vascular endothelial growth factor receptor 2 (Homo sapiens, UniProt P35968)
Type: functional

Sequence of Vascular endothelial growth factor receptor 2 (P35968 whole entry): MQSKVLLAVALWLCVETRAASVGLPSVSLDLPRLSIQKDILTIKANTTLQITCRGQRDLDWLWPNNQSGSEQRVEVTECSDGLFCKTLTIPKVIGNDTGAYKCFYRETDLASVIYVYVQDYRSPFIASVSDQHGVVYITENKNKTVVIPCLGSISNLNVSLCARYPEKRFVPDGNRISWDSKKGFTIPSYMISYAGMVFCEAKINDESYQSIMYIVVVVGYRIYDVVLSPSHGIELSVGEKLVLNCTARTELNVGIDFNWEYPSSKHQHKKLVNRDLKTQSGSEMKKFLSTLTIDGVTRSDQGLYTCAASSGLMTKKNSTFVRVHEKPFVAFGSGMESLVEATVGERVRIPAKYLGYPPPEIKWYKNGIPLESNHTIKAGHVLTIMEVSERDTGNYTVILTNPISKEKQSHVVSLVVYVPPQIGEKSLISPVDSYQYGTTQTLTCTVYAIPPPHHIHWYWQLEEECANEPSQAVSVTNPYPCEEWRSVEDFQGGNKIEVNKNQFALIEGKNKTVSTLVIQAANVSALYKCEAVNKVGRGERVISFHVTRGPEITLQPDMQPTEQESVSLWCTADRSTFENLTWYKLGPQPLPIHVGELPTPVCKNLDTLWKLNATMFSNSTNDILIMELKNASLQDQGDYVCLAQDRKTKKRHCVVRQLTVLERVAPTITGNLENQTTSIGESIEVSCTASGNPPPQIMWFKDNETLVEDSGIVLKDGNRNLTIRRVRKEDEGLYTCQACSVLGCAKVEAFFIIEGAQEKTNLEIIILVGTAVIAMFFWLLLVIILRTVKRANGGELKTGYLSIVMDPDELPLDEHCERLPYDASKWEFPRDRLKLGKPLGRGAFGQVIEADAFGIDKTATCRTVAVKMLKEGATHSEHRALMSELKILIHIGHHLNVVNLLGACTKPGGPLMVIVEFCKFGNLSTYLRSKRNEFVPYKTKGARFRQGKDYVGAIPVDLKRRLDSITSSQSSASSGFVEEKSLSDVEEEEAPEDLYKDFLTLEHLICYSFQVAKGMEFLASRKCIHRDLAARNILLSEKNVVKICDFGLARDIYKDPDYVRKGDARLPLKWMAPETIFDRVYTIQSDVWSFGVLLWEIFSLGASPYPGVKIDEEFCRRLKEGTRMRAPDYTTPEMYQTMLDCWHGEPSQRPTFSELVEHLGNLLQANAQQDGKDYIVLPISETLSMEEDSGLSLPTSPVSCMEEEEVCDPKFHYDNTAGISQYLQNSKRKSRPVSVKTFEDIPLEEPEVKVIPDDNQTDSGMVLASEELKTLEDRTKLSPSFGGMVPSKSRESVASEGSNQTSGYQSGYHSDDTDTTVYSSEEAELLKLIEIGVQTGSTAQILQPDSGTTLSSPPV

Structure (SMILES)	Ki
CCC1CC(NS(=O)(=O)C2CC2)CC1c1ncc2cnc3[nH]ccc3n12 (stereo unspecified)	1 µM (active)
O=C(Nc1cccc(C(F)(F)F)n1)Nc1ccnc2cc(OC(F)F)ccc12	> 1.58 µM (inactive)
O=c1[nH]c2cc(Br)cnc2[nH]1	20 µM (active)
O=C(Nc1cccc(C(F)(F)F)n1)Nc1ccnc2cc(Cl)ccc12	> 2.51 µM (inactive)

Molecular target: Tyrosine-protein kinase Fyn (Homo sapiens, UniProt P06241)
Type: functional

Sequence of Tyrosine-protein kinase Fyn (P06241 whole entry): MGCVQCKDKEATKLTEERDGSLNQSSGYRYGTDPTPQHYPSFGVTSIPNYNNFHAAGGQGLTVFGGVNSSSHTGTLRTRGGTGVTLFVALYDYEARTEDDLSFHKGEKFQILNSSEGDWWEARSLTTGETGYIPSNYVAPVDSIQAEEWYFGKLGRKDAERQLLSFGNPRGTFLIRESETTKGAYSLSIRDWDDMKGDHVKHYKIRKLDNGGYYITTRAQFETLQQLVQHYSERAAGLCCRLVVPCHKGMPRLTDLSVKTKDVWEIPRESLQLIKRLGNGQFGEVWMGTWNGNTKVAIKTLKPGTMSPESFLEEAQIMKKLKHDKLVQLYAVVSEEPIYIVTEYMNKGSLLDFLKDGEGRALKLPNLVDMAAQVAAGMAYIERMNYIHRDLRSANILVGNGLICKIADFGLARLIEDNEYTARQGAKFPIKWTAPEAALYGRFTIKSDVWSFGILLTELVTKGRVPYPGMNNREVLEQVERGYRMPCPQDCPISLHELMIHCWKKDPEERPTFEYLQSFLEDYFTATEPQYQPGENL

Structure (SMILES)	Ki
CCC1CC(NS(=O)(=O)C2CC2)CC1c1ncc2cnc3[nH]ccc3n12 (stereo unspecified)	> 6.31 µM (inactive)
O=C(Nc1cccc(C(F)(F)F)n1)Nc1ccnc2cc(OC(F)F)ccc12	> 6.31 µM (inactive)
O=c1[nH]c2cc(Br)cnc2[nH]1	100 µM (active)
O=C(Nc1cccc(C(F)(F)F)n1)Nc1ccnc2cc(Cl)ccc12	> 6.31 µM (inactive)

Molecular target: Cyclin-dependent kinase 7 (Homo sapiens, UniProt P50613);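 note: value comes from a kinome-wide kinase profiling panel in which CDK7 is one member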
Type: functional

Sequence of Cyclin-dependent kinase 7 (P50613 whole entry): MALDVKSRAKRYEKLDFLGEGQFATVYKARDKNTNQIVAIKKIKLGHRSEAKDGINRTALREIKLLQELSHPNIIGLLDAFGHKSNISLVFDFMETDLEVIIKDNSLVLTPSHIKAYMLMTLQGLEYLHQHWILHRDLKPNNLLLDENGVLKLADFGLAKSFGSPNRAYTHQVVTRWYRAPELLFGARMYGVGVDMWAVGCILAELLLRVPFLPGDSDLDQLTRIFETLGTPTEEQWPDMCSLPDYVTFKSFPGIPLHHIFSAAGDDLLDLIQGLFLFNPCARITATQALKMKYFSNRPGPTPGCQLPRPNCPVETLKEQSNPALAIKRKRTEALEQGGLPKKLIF

Structure (SMILES)	Ki
CCC1CC(NS(=O)(=O)C2CC2)CC1c1ncc2cnc3[nH]ccc3n12 (stereo unspecified)	> 3.98 µM (inactive)
O=C(Nc1cccc(C(F)(F)F)n1)Nc1ccnc2cc(OC(F)F)ccc12	> 3.98 µM (inactive)
O=c1[nH]c2cc(Br)cnc2[nH]1	12.6 µM (active)
O=C(Nc1cccc(C(F)(F)F)n1)Nc1ccnc2cc(Cl)ccc12	> 3.98 µM (inactive)

Molecular target: Cyclin-dependent kinase 9 (Homo sapiens, UniProt P50750);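 note: value from the CDK9 entry of a kinome-spanning kinase panel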
Type: functional

Sequence of Cyclin-dependent kinase 9 (P50750 whole entry): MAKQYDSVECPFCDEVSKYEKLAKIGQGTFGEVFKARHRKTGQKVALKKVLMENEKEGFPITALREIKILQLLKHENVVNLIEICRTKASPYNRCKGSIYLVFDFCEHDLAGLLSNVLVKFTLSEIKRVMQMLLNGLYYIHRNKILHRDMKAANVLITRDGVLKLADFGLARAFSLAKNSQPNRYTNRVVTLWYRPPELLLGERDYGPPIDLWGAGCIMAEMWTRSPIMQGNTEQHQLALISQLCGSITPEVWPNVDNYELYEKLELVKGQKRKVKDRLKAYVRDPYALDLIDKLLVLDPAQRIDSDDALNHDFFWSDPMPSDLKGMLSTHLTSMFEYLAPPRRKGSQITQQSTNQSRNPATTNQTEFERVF

Structure (SMILES)	Ki
CCC1CC(NS(=O)(=O)C2CC2)CC1c1ncc2cnc3[nH]ccc3n12 (stereo unspecified)	> 1.58 µM (inactive)
O=C(Nc1cccc(C(F)(F)F)n1)Nc1ccnc2cc(OC(F)F)ccc12	> 1.58 µM (inactive)
O=c1[nH]c2cc(Br)cnc2[nH]1	12.6 µM (active)
O=C(Nc1cccc(C(F)(F)F)n1)Nc1ccnc2cc(Cl)ccc12	> 1.58 µM (inactive)

Molecular target: BDNF/NT-3 growth factors receptor (Homo sapiens, UniProt Q16620);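 note: NTRK2 measured as one member of a broad kinome-wide kinase profiling panel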
Type: functional

Sequence of BDNF/NT-3 growth factors receptor (Q16620 whole entry): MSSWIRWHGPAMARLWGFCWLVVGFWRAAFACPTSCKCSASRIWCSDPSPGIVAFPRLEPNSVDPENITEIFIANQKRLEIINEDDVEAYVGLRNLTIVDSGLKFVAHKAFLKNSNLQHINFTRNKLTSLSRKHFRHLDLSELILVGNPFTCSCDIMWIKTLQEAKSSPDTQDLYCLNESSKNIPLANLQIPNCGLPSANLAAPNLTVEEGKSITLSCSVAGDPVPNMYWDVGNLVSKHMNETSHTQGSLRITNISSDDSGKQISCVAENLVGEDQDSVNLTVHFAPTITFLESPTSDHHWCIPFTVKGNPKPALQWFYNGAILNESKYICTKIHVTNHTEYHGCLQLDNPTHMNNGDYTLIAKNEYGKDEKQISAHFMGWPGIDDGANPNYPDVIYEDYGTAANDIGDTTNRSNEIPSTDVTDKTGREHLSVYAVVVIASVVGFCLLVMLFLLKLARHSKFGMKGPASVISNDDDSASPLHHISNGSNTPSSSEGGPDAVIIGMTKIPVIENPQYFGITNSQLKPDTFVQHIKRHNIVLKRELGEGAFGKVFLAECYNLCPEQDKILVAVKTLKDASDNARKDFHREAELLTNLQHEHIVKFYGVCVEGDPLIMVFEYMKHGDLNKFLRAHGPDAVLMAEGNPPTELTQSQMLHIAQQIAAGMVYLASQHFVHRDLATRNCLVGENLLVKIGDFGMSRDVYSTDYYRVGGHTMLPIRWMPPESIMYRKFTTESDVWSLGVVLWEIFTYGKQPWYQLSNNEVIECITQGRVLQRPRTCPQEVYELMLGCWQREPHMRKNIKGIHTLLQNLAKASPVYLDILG

Structure (SMILES)	Ki
CCC1CC(NS(=O)(=O)C2CC2)CC1c1ncc2cnc3[nH]ccc3n12 (stereo unspecified)	> 3.98 µM (inactive)
O=C(Nc1cccc(C(F)(F)F)n1)Nc1ccnc2cc(OC(F)F)ccc12	> 3.98 µM (inactive)
O=C(Nc1cccc(C(F)(F)F)n1)Nc1ccnc2cc(Cl)ccc12	> 3.98 µM (inactive)

Molecular target: Macrophage colony-stimulating factor 1 receptor (Homo sapiens, UniProt P07333);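 note: value comes from the Navigating the Kinome screening panel, CSF1R member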
Type: functional

Sequence of Macrophage colony-stimulating factor 1 receptor (P07333 whole entry): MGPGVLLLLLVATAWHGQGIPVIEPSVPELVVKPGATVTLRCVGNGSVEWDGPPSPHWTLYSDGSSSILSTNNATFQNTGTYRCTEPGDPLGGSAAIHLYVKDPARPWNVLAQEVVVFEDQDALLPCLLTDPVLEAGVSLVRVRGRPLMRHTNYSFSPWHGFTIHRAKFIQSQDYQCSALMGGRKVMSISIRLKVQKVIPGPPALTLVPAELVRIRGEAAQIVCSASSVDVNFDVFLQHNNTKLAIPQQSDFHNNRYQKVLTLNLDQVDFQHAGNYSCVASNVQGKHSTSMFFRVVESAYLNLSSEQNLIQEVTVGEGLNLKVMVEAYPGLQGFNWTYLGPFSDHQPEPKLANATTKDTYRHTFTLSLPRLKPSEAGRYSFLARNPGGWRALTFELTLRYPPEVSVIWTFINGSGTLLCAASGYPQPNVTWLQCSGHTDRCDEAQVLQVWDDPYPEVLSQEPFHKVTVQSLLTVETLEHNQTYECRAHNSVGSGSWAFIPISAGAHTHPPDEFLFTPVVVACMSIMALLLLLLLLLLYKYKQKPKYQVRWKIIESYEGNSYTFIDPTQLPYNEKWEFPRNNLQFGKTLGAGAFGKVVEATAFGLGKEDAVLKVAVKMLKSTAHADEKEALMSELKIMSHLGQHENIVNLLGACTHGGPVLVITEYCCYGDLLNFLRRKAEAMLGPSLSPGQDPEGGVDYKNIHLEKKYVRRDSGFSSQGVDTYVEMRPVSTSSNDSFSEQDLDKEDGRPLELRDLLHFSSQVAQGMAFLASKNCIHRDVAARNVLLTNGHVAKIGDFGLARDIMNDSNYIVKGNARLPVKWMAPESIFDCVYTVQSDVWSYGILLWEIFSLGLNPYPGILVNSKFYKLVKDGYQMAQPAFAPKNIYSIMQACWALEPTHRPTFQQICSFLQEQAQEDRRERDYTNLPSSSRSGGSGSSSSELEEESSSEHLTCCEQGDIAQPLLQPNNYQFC

Structure (SMILES)	Ki
CCC1CC(NS(=O)(=O)C2CC2)CC1c1ncc2cnc3[nH]ccc3n12 (stereo unspecified)	1.58 µM (active)
O=C(Nc1cccc(C(F)(F)F)n1)Nc1ccnc2cc(OC(F)F)ccc12	> 2.51 µM (inactive)
O=c1[nH]c2cc(Br)cnc2[nH]1	> 100 µM (inactive)
O=C(Nc1cccc(C(F)(F)F)n1)Nc1ccnc2cc(Cl)ccc12	> 2.51 µM (inactive)

Molecular target: Leukocyte tyrosine kinase receptor (Homo sapiens, UniProt P29376)
Assay: Navigating the Kinome. Panel member name: LTK
Type: functional

Structure (SMILES)	Ki
CCC1CC(NS(=O)(=O)C2CC2)CC1c1ncc2cnc3[nH]ccc3n12 (stereo unspecified)	0.2 µM (active)
O=C(Nc1cccc(C(F)(F)F)n1)Nc1ccnc2cc(OC(F)F)ccc12	> 2.51 µM (inactive)
O=c1[nH]c2cc(Br)cnc2[nH]1	7.94 µM (active)
O=C(Nc1cccc(C(F)(F)F)n1)Nc1ccnc2cc(Cl)ccc12	> 2.51 µM (inactive)
